# Laboratory results reported in patent publication US9267129B2, “Compositions and methods for conferring herbicide resistance” (BEN-GURION UNIVERSITY OF THE NEGEV RESEARCH AND DEVELOPMENT …, priority 2011, dated 2016).
# Test system: E. coli BUM1 transformed with pAH29 (bacterial AHASII)
# Assay: Growth on M9 plates with SMM, bacteria transformed with pAH29
# Format: cell-based, Escherichia coli
# Details: 50 μM SMM, 48 hrs, 37° C.
# Method: This strain also requires proline and thiamin, regardless of AHAS expression. Transformation of BUM1 cells was achieved using a standard heat shock protocol. BUM1 cells were grown in LB or in M9 minimal medium (7 mg/ml Na2HPO4; 3 mg/ml KH2PO4; 0.5 mg/ml NaCl; 1 mg/ml NH4Cl; 0.12 mg/ml MgSO4; 0.35 mg/ml thiamin HCl; 2 mg/ml glucose) supplemented with 200 μg/ml proline. Where appropriate, the M9 medium was supplemented with the BCAAs valine, leucine, and isoleucine (150 μg/ml of each) or with 50 μM SMM. BUM1 transformants were propagated and kept on LB medium supplemented with 100 μg/ml Ampicillin. For functional expression assays, the cells were washed and plated on M9 agar plates and incubated for 48 hrs at 37° C. […]
# The expression vector pEp-empty, an empty plasmid that retains the native ilvEp promoter and ATG start codon, was created by amplification of pAH29 plasmid with the pAH29-empty primer set, and included BamHI and SalI restriction sites for future fusion with the algal genes. Three forms of PiAHAS genes were used for this experiment: PiAHAS full open reading frame (ORF), truncated PiAHAS without the estimated chloroplast targeting peptide (from Serine91), and PimAHAS containing the point mutation (W605S). […] The plates were incubated for 48 hrs (FIG. 3) and bacterial growth was determined. […]
structure (smiles),measurement,value
"COC(=O)c1ccccc1S(=O)(=O)NC(=O)Nc1nc(C)cc(C)n1 [SMM, sulfometuron methyl]",bacterial growth in presence of SMM,able to grow slowly
